The source of these data is publication PMC5760734, “Development of an oral once-weekly drug delivery system for HIV antiretroviral therapy” (Nature Communications, 2018).

The subject of one data set is HIV. On the set-up: method as in ref 2–6 (a number printed in a supplementary file, which may have a reference list of its own: not looked up in the article's list). The settings on record: monotherapy or dual therapy with rilpivirine, after a two-year follow up; cited from earlier work.
The nature of data set [1]: Plasma pharmacokinetics of immediate release and gastric resident dosage forms in pigs. Type of data set: in vivo, Yorkshire pigs. The method, then:
All animal experiments were approved by the Committee on Animal Care at the Massachusetts Institute of Technology. In vivo pharmacokinetics were evaluated in an unblinded fashion in female Yorkshire pigs (50–95 kg) that were randomly assigned to the immediate release or sustained release groups. Animals were fed daily in the morning and in the evening with a diet consisting of pellets (Laboratory mini-pig growler diet, 5081), with a midday snack consisting of various fruits and vegetables. Specifically, the pellets were 5/32” x ¼” length, and consisted of ground oats, alfalfa meal, wheat middlings, soybean meal, dried beet pulp, salts and other micronutrients.
To determine the oral pharmacokinetics of immediate release dosage forms of DTG and CAB, 50 mg of DTG and 30 mg of CAB were weighed and filled into gelatine capsules. For RPV pharmacokinetics, RPV base was dissolved in poly(ethylene glycol) (molecular weight—400 Da) containing 10-fold molar excess of citric acid. The concentration of RPV base in this solution was 5 mg/mL and 5 mL of the solution was dosed in a gelatine capsule. […] To determine oral pharmacokinetics from gastric retentive dosage forms, the arms of dosage forms (2–3/pig containing 350 mg DTG, 175 mg RPV or 210 mg CAB) were folded into capsule shells immediately prior to dosing. […]. The capsules containing drug or dosage form were delivered into the intestine or stomach respectively. At various time points, blood samples (0.5 mL) were collected from a central line connected to the external jugular vein or from a mammary vein into […] Vacutainer gold top tubes (Becton, Dickinson and Co. USA). Plasma samples were separated from blood by centrifugation (1800g, 10 min at 4 °C) and were stored at −80 °C. Atropine can reduce gastric acid production and gastric motility which may affect the overall drug pharmacokinetics and the gastric retention of the dosage form. […]. Drug concentrations in the plasma were analysed using UPLC-MS/MS. Plasma samples (100 µL) were spiked with 200 µL acetonitrile solution of 250 µg/mL maraviroc (internal standard) to cause precipitation. Samples were vortexed and sonicated for 10–20 min and then centrifuged (21130g, 10 min). Two hundred microliters of solution were pipetted into a 96-well plate containing 200 µL of nanopure water. Finally, 2.5 μL was injected onto the UPLC–ESI–MS system for analysis.
UPLC separation was carried out on a Waters® UPLC aligned with a Waters® Xevo–TQ-SMS mass spectrometer (Waters Ltd., UK). MassLynx® 4.1 software was used for data acquisition and analysis. Liquid chromatography separation was performed on an Acquity® UPLC CSH C18 (50 × 2.1 mm, 1.7 μm particle size) column at 50 °C. The mobile phase consisted of acetonitrile spiked with 0.1% formic acid and 10 mM ammonium formate solution. The mobile phase was flowed at a rate of 0.6 mL/min using a time and solvent gradient composition. The initial composition (100% aqueous) was held for 1 min, following which the composition was changed linearly to 20% organic phase over the next 0.25 min. The composition was then brought to 100% organic over 1.25 min, held for 0.5 min and finally shifted to the initial composition and held constant until the end of the run for column equilibration. The total run time was 4 min and sample injection volume was 2.5 μL. The mass spectrometer was operated in the multiple reaction monitoring (MRM) mode. Sample introduction and ionization was by electrospray ionization (ESI) in the positive ion mode. DTG, RPV and CAB were analysed at mass-to-charge ratios of […] respectively. Stock solutions of DTG, RPV, CAB, and an internal standard maraviroc were prepared in methanol at a concentration of 500 μg/mL. A ten-point calibration curve was prepared ranging from 2.5–5000 ng/mL. Quality control samples were prepared in a similar procedure using an independent stock solution at three concentrations (5, 50 and 500 ng/mL). […]

The mark [2] stands for this setting: immediate release formulation, pigs.

On to `C[C@@H]1CCO[C@H]2Cn3cc(C(=O)NCc4ccc(F)cc4F)c(=O)c(O)c3C(=O)N12` [DTG, dolutegravir], for which the “patients with plasma viremia levels of <50 copies/mL” value with HIV is on record as > 95 % patients. Besides, in data set [1] (female, Yorkshire, pig, plasma, oral, immediate release formulation, pigs, post-dose, read-out: time of maximum plasma concentration (converted)), the Tmax is 6 h. In addition, in data set [1] (gastric resident system, pigs), the “mean peak plasma concentration relative to immediate release” value is reported as “comparable to that of the immediate release formulation” and the “time to mean peak plasma concentration” value was ≤ 6 h. In addition, the “average (sustained) plasma drug concentrations throughout the week following dosing” value in data set [1] (gastric resident system, pigs, n = 3) fell in the range of 200 to 800 ng/mL. Moreover, the “duration of sustained drug concentrations” value in data set [1] (gastric resident system, single dose) was “up to 1 week”. In data set [1] (setting [2]), the “day at or after which no drug was detected in plasma” value came to 2 days, the “plasma drug concentrations on day 1” value is “low but detectable” and the “time to detectable plasma concentrations” value is ≤ 15 min. For the same compound, the “average maximum plasma concentration” value in data set [1] (immediate release formulation, pigs, n = 3) is ~ 500 ng/mL.
